Measured values: patent US10155751B2, “Pyrazolyl-substituted heteroaryls and their use as medicaments” (Boehringer Ingelheim International GmbH, priority 2015, dated 2018)
Like-named read-outs stand apart in the source and are kept apart here.

Experiments:
[1] = test system: SYK dependent basophil degranulation (CD63 surface expression on basophils in whole blood); assay: CD63-assay (cellular assay for SYK-inhibition) in whole blood; type: cell-based
Procedure: In this assay, IgE raised against dinitrophenol (DNP) is incubated in whole blood where it binds to the FcεR1 on basophils. […] CD63 normally resides on the intracellular granule membrane within basophils, which upon degranulation, is then expressed on the surface where it can be detected by flow cytometry. Surface expression of CD63 correlates extremely well with the release of histamine from basophils. The CD63 assay has previously been validated as a clinical target engagement biomarker in the Fostamatinib SYK program (Braselmann et al, J. Pharm. Exp. Therap. 319:998-1008, 2006). Heparinized whole blood is mixed gently (vortex mixer) and […] per test aliquoted into a 96 well plate. Anti-DNP (1 mg/ml) is diluted 1:100 with PBS/0.1% HSA to 10 μg/ml (final concentration: 1 μg/mL). Pre-dilute DNP/BSA (5 mg/ml) to a concentration of 60 ng/ml with washing solution. Compounds: […] Reagents are provided from the Basotest® kit. Incubate 10 μl of 10 μg/ml anti DNP and 10 μl of compound with 100 μl whole blood in a 37° C. pre-warmed water bath. After 30 minutes, 20 μl of STIMULATION BUFFER is added to the whole blood samples and vortexed gently. Incubate the samples for 10 min at 37° C. in a water bath. 100 μl of DNP/BSA is added per test to the whole blood. Add 100 μl of the WASHING SOLUTION to a further test tube as a negative control. Add 100 μl of DNP/BSA (final 30 ng/ml) in the compound tubes. All tubes are mixed once more. The samples are incubated for 20 min at 37° C. in a water bath. Stop degranulation by incubating the samples on ice for 5 min. Add 20 μl of STAINING REAGENT to each tube. Vortex and incubate the tubes for 20 min in an ice bath, covered to prevent exposure to light. The whole blood samples are lysed and fixed with 2 ml of pre-warmed (room temperature) 1×LYSING SOLUTION. Vortex and incubate for 10 min at room temperature. Spin down cells (5 min, 250×g, 4° C.). Discard the supernatant. Add 3 ml of WASHING SOLUTION to the tubes. Centrifuge the tubes (5 min, 250×g, 4° C.). Aspirate the supernatant. Add 200 μl WASHING SOLUTION to the cell pellet, vortex. Incubate the tubes in a covered ice bath until analysis. Cells are analysed by flow cytometry using the blue-green excitation light (488 nm argon-ion laser). Acquire data by using fluorescence triggering in the FL2 channel (PE) to gate on basophilic granulocytes expressing high amounts of IgE. This live gating reduces the amount of data and saves memory capacity. Acquire at least 500 basophils per sample. For data evaluation and calculation, the measurement of the negative control (unstimulated blood) was set as 100% control and the measurement of the positive control (DNP/anti-DNP stimulated blood) was set as 0% control. Based on these values the % value for the measurement of each substance concentration was calculated, a concentration-effect curve fitted and an EC50 value calculated using GraphPad Prism version 6.01 for Windows. The EC50 value was calculated using a nonlinear fitting (log(inhibitor) vs. response—variable slope). Normally, the % control values calculated are between 0% and 100% values but may also occur outside these limits in individual cases based on variability or compound characteristics.

[2] = target: Recombinant human FLT3 (amino acids 564-958) (Homo sapiens (Human), UniProt P36888); assay: FLT3 kinase test (ADP Glo); type: biochemical
Sequence of Recombinant human FLT3 (amino acids 564-958) (P36888 564-958): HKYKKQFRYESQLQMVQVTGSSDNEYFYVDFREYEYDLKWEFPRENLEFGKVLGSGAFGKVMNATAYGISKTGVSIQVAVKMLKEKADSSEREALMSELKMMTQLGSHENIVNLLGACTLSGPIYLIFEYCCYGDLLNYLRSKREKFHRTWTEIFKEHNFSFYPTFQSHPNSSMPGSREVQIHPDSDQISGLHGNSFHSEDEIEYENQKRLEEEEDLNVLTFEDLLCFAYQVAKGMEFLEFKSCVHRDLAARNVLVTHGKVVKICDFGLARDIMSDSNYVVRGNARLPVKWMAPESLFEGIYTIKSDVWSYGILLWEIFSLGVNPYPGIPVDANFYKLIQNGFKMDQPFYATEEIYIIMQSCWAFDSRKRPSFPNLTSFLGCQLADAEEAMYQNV
Procedure: The activity of the FLT3 kinase protein was determined using the ADP Glo® Luminescence Kinase test (Promega; V9103X). In this homogeneous test the amount of ADP remaining after the kinase reaction is quantified by a luciferin-luciferase reaction using luminescence. The luminescence signal obtained correlates with the amount of ADP still present and thus correlates with the activity of the protein kinase.
The test compounds were dissolved in 100% DMSO at a concentration of 10 mM and diluted in DMSO to a concentration of 5 mM. Serial Dilution is done in 1:10 steps in 100% DMSO. All further dilutions of the substances were carried out with test buffer (50 mM Hepes, pH 7.5, 10 mM MgCl2, 1 mM EGTA, 0.01% Brij35, 0.1% BSA) until a concentration was reached which was 2.5 times above the final test concentration (final concentration of the compounds: 50 μM to 0.005 nM). […] FLT3 enzyme was diluted to 5 nM in the test buffer and 4 μl of this dilution were used in the kinase test (final concentration of FLT3=2 nM in a total volume of 10 μl). After 60 minutes incubation at room temperature 2 μl mixture of 2.5 mg/ml substrate (Poly-Glu/Tyr; Sigma #P0275) and 2.5 mM ultra-pure ATP (Promega #V915B) in test buffer were added to each well and the incubation was continued for a further 90 minutes at room temperature.
Positive controls are the reaction mixtures that contain no test substance; negative controls (blanks) are reaction mixtures that contain no kinase.
After 90 minutes, 10 μl ADP-Glo® solution (ADP-Glo Reagent #V912B Promega) (heated to room temperature) were added to each well and incubation was continued for a further 60. minutes. Then 20 μl Kinase detection mix (Detection Buffer #V913B Promega; Kinase Detection Substrate #V914B Promega) were added and incubated for 40 minutes at room temperature. The plates were read in Envision Luminescence Reader (Perkin-Elmer).
The output file of the reader is a csv file that contains the well number and measured RLU. For data evaluation and calculation, the measurement of the negative control was set as 0% ctrl and the measurement of the positive control was set as 100% ctrl. Based on this values the % value for the measurement of each substance concentration can be calculated using an Assay Explorer software (e.g. Accelrys). Normally, the % ctrl values calculated are between 0% and 100% values but may also occur outside these limits in individual cases based on variability or compound characteristics. The IC50 values were calculated from the % ctrl values using Assay Explorer software. Calculation: [y=(a−d)/(1+(x/c)^b)+d], a=low value, d=high value; x=conc. M; c=IC50 M; b=hill; y=% ctrl.

[3] = whole blood, DNP/anti-DNP stimulated basophils, read-out: CD63 assay EC50-value (chapter 5.2)
[4] = read-out: FLT3 inhibition IC50-value (chapter 5.4)

| SMILES | EC50 ([1]; read-out: EC50 in CD63-assay) | EC50 [1, 3] | IC50 [2, 4] | IC50 ([2]; read-out: IC50(FLT3)) |
| --- | --- | --- | --- | --- |
| C[C@@H](Oc1cc(-c2cnn(C(C)(C)C)c2)cc2ncn(C)c12)[C@H]1CNC(=O)C1 [example 3B.22 on page 219 of WO15017610, reference compound] | < 150 nM | 29 nM | 307 nM | 307 nM |
| C[C@@H](Oc1nc(-c2cnn(C(C)(C)C)c2)cc2ncn(C)c12)[C@H]1CNC(=O)C1 [example 3A.02, on page 196 of WO15017610, reference compound] | < 150 nM | 42 nM | 384 nM | 384 nM |
| Cc1c2c(O[C@H](C)[C@H]3CNC(=O)C3)cc(-c3cnn([C@@H]4CCOC(C)(C)C4)c3)cc2nn1C [Example 9, (R)-4-((R)-1-{6-[1-((R)-2,2-Dimethyl-tetrahydro-pyran-4-yl)-1H-pyrazol-4-yl]-2,3-dimethyl-2H-indazol-4-yloxy}-ethyl)-pyrrolidin-2-one] | – | 52 nM | 1840 nM | – |
| Cc1cnn2cc(-c3cnn(C(C)(C)C)c3)nc(O[C@H](C)[C@H]3CNC(=O)C3)c12 [example 5.20 on page 506 of WO15017610, reference compound] | < 150 nM | 77 nM | 43 nM | 43 nM |
| C[C@@H](Oc1cc(-c2cnn(C3CCC(F)(F)C3)c2)cc2nn(C)c(F)c12)[C@H]1CNC(=O)C1 (stereo partly drawn) [Example 7] | – | 53 nM | 2440 nM | – |
| Cc1c2c(O[C@H](C)[C@H]3CNC(=O)C3)nc(-c3c[nH]nc3C(C)(C)C)cc2nn1C [Example 4, (R)-4-{(R)-1-[6-(3-tert-Butyl-1H-pyrazol-4-yl)-2,3-dimeth-yl-2H-pyrazolo[4,3-c]pyridin-4-yloxy]-ethyl}-pyrrolidin-2-one] | – | 64 nM | 7410 nM | – |
| C[C@@H](Oc1cc(-c2cnn(C3CCC3)c2)cc2nn(C)c(F)c12)[C@H]1CNC(=O)C1 [Example 1, (R)-4-{(R)-1-[6-(1-Cyclobutyl-1H-pyrazol-4-yl)-3-fluoro-2-methyl-2H-indazol-4-yloxy]-ethyl}-pyrrolidin-2-one] | – | 41 nM | 2230 nM | – |
| Cc1c2c(O[C@H](C)[C@H]3CNC(=O)C3)cc(-c3cnn(C(C)C)c3)cc2nn1C [Example 18, (R)-4-{(R)-1-[6-(1-Isopropyl-1H-pyrazol-4-yl)-2,3-dimethyl-2H-indazol-4-yloxy]-ethyl}-pyrrolidin-2-one] | – | 95 nM | 4670 nM | – |
| Cc1c2c(O[C@H](C)[C@H]3CNC(=O)C3)cc(-c3cnn(C4CCC(F)(F)C4)c3)cc2nn1C (stereo partly drawn) [Example 22, (R)-4-((R)-1-{6-[1-(3,3-Difluoro-cyclopentyl)-1H-pyrazol-4-yl]-2,3-dimethyl-2H-indazol-4-yloxy}-ethyl)-pyrrolidin-2-one] | – | 67 nM | 1950 nM | – |
| C[C@@H](Oc1cc(-c2cnn(CCC(F)(F)F)c2)cc2nn(C)c(F)c12)[C@H]1CNC(=O)C1 [Example 12, (R)-4-((R)-1-{3-Fluoro-2-methyl-6-[1-(3,3,3-trifluoro-propyl)-1H-pyrazol-4-yl]-2H-indazol-4-yloxy}-ethyl)-pyrrolidin-2-one] | – | 67 nM | 5030 nM | – |
| Cc1c2c(O[C@H](C)[C@H]3CNC(=O)C3)cc(-c3cnn(C4CC4)c3)cc2nn1C [Example 20, (R)-4-{(R)-1-[6-(1-Cyclopropyl-1H-pyrazol-4-yl)-2,3-dimethyl-2H-indazol-4-yloxy]-ethyl}-pyrrolidin-2-one] | – | 134 nM | 3320 nM | – |
| Cc1cnn2cc(-c3cnn(C(C)(C)C)c3)cc(O[C@H](C)[C@H]3CNC(=O)C3)c12 [example 6.09 on page 559 of WO15017610, reference compound] | < 150 nM | 20 nM | 25 nM | 25 nM |
| Cc1c2c(O[C@H](C)[C@H]3CNC(=O)C3)cc(-c3cnn(CCF)c3)cc2nn1C [Example 11, (R)-4-((R)-1-{6-[1-(2-Fluoro-ethyl)-1H-pyrazol-4-yl]-2,3-dimethyl-2H-indazol-4-yloxy}-ethyl)-pyrrolidin-2-one] | – | 65 nM | 3480 nM | – |
| Cc1c2c(O[C@H](C)[C@H]3CNC(=O)C3)cc(-c3cnn(C(C)(C)C)c3)cc2nn1C [Example 13, (R)-4-{(R)-1-[6-(1-tert-Butyl-1H-pyrazol-4-yl)-2,3-dimethyl-2H-indazol-4-yloxy]-ethyl}-pyrrolidin-2-one] | – | 58 nM | 5220 nM | – |
| Cc1cc2c(O[C@H](C)[C@H]3CNC(=O)C3)cc(-c3cnn(C(C)(C)C)c3)cn2n1 [example 6.60 on page 587 of WO15017610, reference compound] | 483 nM | 483 nM | 6680 nM | 6680 nM |
| Cc1c2c(O[C@H](C)[C@H]3CNC(=O)C3)cc(-c3cnn(C(C)(C)C#N)c3)cc2nn1C [Example 17, 2-(4-{2,3-Dimethyl-4-[(R)-1-((R)-5-oxo-pyrrolidin-3-yl)-ethoxy]-2H-indazol-6-yl}-pyrazol-1-yl)-2-methyl-propionitrile] | – | 92 nM | 11300 nM | – |
| Cc1c2c(O[C@H](C)[C@H]3CNC(=O)C3)cc(-c3cnn(C4CC(C)(C)OC4(C)C)c3)cc2nn1C (stereo partly drawn) [Example 16, (R)-4-((R)-1-{2,3-Dimethyl-6-[1-(2,2,5,5-tetramethyl-tetrahydro-furan-3-yl)-1H-pyrazol-4-yl]2H-indazol-4-yloxy}-ethyl)-pyrrolidin-2-one] | – | 82 nM | 3490 nM | – |
| CC(C)n1cc(-c2cc(O[C@H](C)[C@H]3CNC(=O)C3)c3c(F)n(C)nc3c2)cn1 [Example 2, (R)-4-{(R)-1-[3-Fluoro-6-(1-isopropyl-1H-pyrazol-4-yl)-2-methyl-2H-indazol-4-yloxy]-ethyl}-pyrrolidin-2-one] | – | 45 nM | 2830 nM | – |
| Cc1c2c(O[C@H](C)[C@H]3CNC(=O)O3)nc(-c3cnn(C(C)(C)C)c3)cc2nn1C [Example 3, (R)-5-{(R)-1-[6-(1-tert-Butyl-1H-pyrazol-4-yl)-2,3-dimethyl-2H-pyrazolo[4,3-c]pyridin-4-yloxy]-ethyl}-oxazolidin-2-one] | – | 51 nM | 1340 nM | – |
